In patent US20220041691A1, “METHODS FOR DIAGNOSING OR TREATING POST-TRAUMATIC STRESS DISORDER, AND COMPOSITIONS THEREFOR” (Centre for Addiction and Mental Health, priority 2018, published 2022):
Entries after “also recorded” stand apart in the source; their conditions may differ.

Legend:
GR-FKBP51 complex [1] = biological target: T1, GR-FKBP51 complex (Mus musculus, UniProt Q64378); test: Co-immunoprecipitation of GR-FKBP51 complex in brain and lymphocyte lysate of fear-conditioned mice injected with peptide; type: in vivo
T1 construct: from tissue; host or cells: C57Bl/6 mouse brain (acute slices; whole-brain lysate) and blood lymphocytes
T1 sequence (Q64378 1-456): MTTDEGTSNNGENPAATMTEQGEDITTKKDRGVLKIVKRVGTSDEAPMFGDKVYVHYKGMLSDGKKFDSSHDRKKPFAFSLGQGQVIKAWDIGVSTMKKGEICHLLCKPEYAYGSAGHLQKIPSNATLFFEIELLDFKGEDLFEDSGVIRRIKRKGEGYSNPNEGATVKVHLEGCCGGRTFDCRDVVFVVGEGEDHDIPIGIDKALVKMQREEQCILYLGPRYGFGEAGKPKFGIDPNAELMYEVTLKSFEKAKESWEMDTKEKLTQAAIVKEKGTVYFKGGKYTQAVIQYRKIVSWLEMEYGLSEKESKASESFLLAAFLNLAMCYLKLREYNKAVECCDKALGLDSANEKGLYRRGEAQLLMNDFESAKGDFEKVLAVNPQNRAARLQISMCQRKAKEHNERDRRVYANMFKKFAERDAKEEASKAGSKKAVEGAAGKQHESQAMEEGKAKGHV
Experimental: Furthermore, testing was performed to determine whether disrupting the GR-FKBP51 complex reduced consolidation of cued fear memory. Thus, TAT or TAT-GRpep was administered two hours after the end of fear conditioning training (FIG. 4C), before five consecutive daily extinction sessions of cue exposure without shock.
(§1) Co-immunoprecipitation and Western blot analyses were performed as previously described.^24, 25, 26 For co-immunoprecipitation, 500˜1000 μg solubilized protein was extracted from whole mouse brain and incubated with primary antibody or control IgG (2˜4 μg) for 4 hrs at 4° C., followed by the addition of 25 μl protein A/G plus agarose (Santa Cruz Biotechnology) for 12 hrs. Pellets were washed, boiled for 5 min in SDS sample buffer and subjected to SDS-PAGE. 50˜100 μg of total protein extract was used as control in each experiment. After transfer of proteins into nitrocellulose, membranes were Western blotted with the primary antibodies. The intensity of protein level was quantified by densitometry (software: ImageLab, Bio-Rad).

[2] = tested on: GR and FKBP52 colocalization in primary neurons; test: Immunocytochemistry of GR and FKBP52 in primary mouse neurons; type: cell-based
Experimental: Cortical tissues from embryonic day (E14) mouse brains were dissected out, incubated with 0.25% trypsin for 15 min at 37° C., and dissociated by mechanical trituration. Neurons were then plated at a desired density onto glass coverslips previously coated with 0.1 mg/ml poly-d-lysine, and grown in Neurobasal medium with 1× Glutamax, 1×B27, 100 U/ml penicillin and 100 μg/ml streptomycin in an incubator (37° C., 5% CO2). Either 10 μM of TAT-GRpep, 10 μM TAT-control peptide or saline were added in culture plates for 45 min in advance at 8 days in vitro (8 DIV).
Cultured neurons were fixed in 4% PFA/4% sucrose, permeabilized with 0.1M PBS containing 0.1% Triton X-100 for 10 min, and blocked for 1 hour with 1% bovine serum albumin in PBS at room temperature. They were incubated with primary antibodies overnight at 4° C. and secondary antibodies for 1 hour at room temperature. The following primary antibodies were used: anti-GR (1:200; Thermo), anti-FKBP51 (1:200; Abcam) and anti-FKBP52 (1:200; Abcam). […] DAPI was used to stain cell nuclei.

GR-FKBP52 complex [3] = test: Co-immunoprecipitation of GR-FKBP52 complex in mouse brain slices; type: cell-based; conditions: 10 μM, 30 min, vs untreated controls or TAT alone, p<0.05, n=3
Experimental: (§2) To test this hypothesis, the effect of TAT-GRpep on GR-FKBP52 levels was examined using co-immunoprecipitation. […] Similar results were also obtained using confocal microscope in primary mouse neuron cultures.
as §1
(§3) Acute brain slices (350 μm thick) were prepared from C57Bl/6 mice with a McIlwain tissue chopper (Mickle Laboratory Engineering, Gomshall, United Kingdom). After being dissected from the brain, mouse cerebral hemispheres were left for 5 min in ice-cold artificial cerebrospinal fluid (aCSF) containing 126 mM NaCl, 2.5 mM KCl, 1 mM MgCl2, 1 mM CaCl2, 1.25 mM KH2PO4, 26 mM NaHCO3 and 20 mM glucose, which was bubbled continuously with carbogen (95% O2/5% CO2). […]

GR-FKBP51 complex [4] = biological target: T1, GR-FKBP51 complex; test: Co-immunoprecipitation of GR-FKBP51 complex in acute mouse brain slices treated with peptide; type: cell-based; conditions: versus control TAT peptide
Experimental: Thus, it is concluded that the GRNT-4-1 region is important for GR-FKBP51 complex formation, and that GRpep disrupted the GR-FKBP51 complex.
as §1, §3

GR-FKBP52 complex [5] = test: Co-immunoprecipitation of GR-FKBP52 complex in brain of fear-conditioned mice; type: in vivo; conditions: fear-conditioned mouse brain, 3 nmol/g i.p; vs TAT alone or saline; p<0.05, n=3
Experimental: as §1

nuclear GR = test: Nuclear protein isolation, nuclear GR in mouse brain slices; type: cell-based; conditions: 10 μM, 30 min, vs TAT or untreated controls, p<0.001, n=3
Experimental: as §2
Acute brain slices (350 μm thick) were prepared from C57Bl/6 mice with a McIlwain tissue chopper (Mickle Laboratory Engineering, Gomshall, United Kingdom). After being dissected from the brain, mouse cerebral hemispheres were left for 5 min in ice-cold artificial cerebrospinal fluid (aCSF) containing 126 mM NaCl, 2.5 mM KCl, 1 mM MgCl2, 1 mM CaCl2, 1.25 mM KH2PO4, 26 mM NaHCO3 and 20 mM glucose, which was bubbled continuously with carbogen (95% O2/5% CO2). Freshly cut slices were placed in an incubating chamber with carbogenated aCSF and recovered from stress at 37° C. for 1 hour. Slices were then treated with TAT or TAT-GRpep and harvested for Western blot analysis.
Nuclear protein isolation assays were performed in acute mouse brain slices or mouse brain tissue using the Nuclear Protein Extraction Kit (Bio Basic Inc., Amherst, N.Y.). Briefly, after treatment with TAT or TAT-GRpep, mouse brain slices were harvested for nuclear protein extraction according to the manufacturer's instructions.

GRKKRRQRRRPQSPWRSDLLIDENCLL (Amino Acid Sequence of TAT-GRpep Peptide)
GR-FKBP51 complex level in brain (co-immunoprecipitation) (GR-FKBP51 complex [1]; brain lysate of fear-conditioned mice injected with TAT or TAT-GRpep, p<0.05, n=3): able to block the increase of GR-FKBP51 complex; also recorded: disrupt the GR-FKBP51 complex
GR-FKBP51 complex level in lymphocyte lysate / peripheral blood (co-immunoprecipitation) (GR-FKBP51 complex [1]; lymphocyte lysate from blood of fear-conditioned mice, p<0.01 vs TAT, n=4): able to disrupt the GR-FKBP51 complex
nuclear GR levels ([2]; primary mouse neuron cultures, confocal microscope): markedly increased nuclear GR levels
nuclear GR-FKBP52 colocalization ([2]; primary neurons 8 DIV, 10 μM, 45 min): marked increase in nuclear GR-FKBP52 colocalization
colocalization between GR and FKBP52 ([2]; primary neurons 8 DIV, 10 μM, 45 min, vs saline and control peptide): significantly more colocalization between GR and FKBP52; also recorded: co-localized more
GR-FKBP52 complex (FKBP52 co-immunoprecipitated by GR antibody) (GR-FKBP52 complex [3]): more FKBP52 was co-immunoprecipitated by GR antibody; also recorded: significantly increased the amount of GR-FKBP52 complex
GR-FKBP51 complex level (co-immunoprecipitation) (GR-FKBP51 complex [4]): able to disrupt the GR-FKBP51 complex; also recorded: reduced GR-FKBP51 levels
GR-FKBP52 complex (FKBP52 co-immunoprecipitated by GR antibody) (GR-FKBP52 complex [5]): more FKBP52 was co-immunoprecipitated by GR antibody; also recorded: significant increases in GR-FKBP52 complex levels
nuclear GR level / proportion of GR in the nucleus (nuclear GR): higher levels of nuclear GR; also recorded: significantly increased
